# “And” between values parts separate entries of the source, which are not always exact repeats. Equal values may be shown once.
# What was measured:
# TNF-α = TNF-α content in blood, ELISA, papain-induced arthritis; assay type: in vivo, mouse; conditions: DS 2 mg/kg/bw; fraction 3 100 and 200 mg/kg/bw; oral once daily 20 days
# Experimental: The experiment animals were adapted in a lab environment for 1 week and then the body weight was measured. Eight animals were assigned to each group to have even body weight. In the normal group, the physiological saline 6 was injected in the right knee joint and then the physiological saline 0.2 ml was orally administered once a day for 20 days. In the treated groups, i.e., a control group, a drug-administered group and a fraction 3-administered group, papain 6 was injected in the right knee joint to induce osteoarthritis. The physiological saline in the control group, Diclofenac sodium (DS, 2 mg/kg/bw) in the drug-administered group, and 100 mg/kg/bw {below, called “fraction 3 (100)”} and 200 mg/kg/bw {below, called “fraction 3 (200)”} in the fraction 3-administered group of Example 2 were orally administered once daily at a predetermined time for 20 days. All subjects were lightly anesthetized with ether at the experiment end day to take a heart blood sample. The blood was centrifuged to isolate a serum. […] The contents of tumor necrosis factor-α (TNF-α), interleukin-1β (IL-1β) and interleukin-6 (IL-6) were measured using enzyme-linked immunosorbent assay (ELISA) kit, respectively. The effect of fraction 3 of the inflammatory cytokine TNF-α produced in large quantities in animals where arthritis was induced by injection of papain, was measured by ELISA method.
# [1] = tested on: animal models of osteoarthritis C57BL/6J mouse; assay: Osteoarthritis index (histopathology, method of Rudolphi) in papain-induced osteoarthritis; assay type: in vivo
# Experimental: (§1) 40 eight week-old animal models of osteoarthritis C57BL/6J mouse were purchased from Central Laboratory Animal Inc. (Seoul, Korea), adapted with a general diet for 1 week and then used in the experiments. The temperature and humidity of the breeding room were maintained at 20±2° C., 50±10%, the lightening conditions were such that the light was turned on and off every 12 hours and the light was kept on from 07:00˜19:00. During the experiment, the feedstuff (Orient Bio, Seoul, Korea) and water were to be freely taken.
# (§2) The osteoarthritis was induced by the method given in the test guidelines of the effect of the herbal preparation presented by the Korean Food and Drug Administration. Papain (type IV, double crystallized, 15 units/mg, Sigma, USA) was adjusted to a concentration of 1.0% (w/v) in which 0.03 ML-cystein HCl (Sigma, USA) was supplemented for the activation of papain and then passed through the patellar ligament. […] 6 was administered in the right knee joint to induce osteoarthritis.
# The experiment animals were adapted in a lab environment for 1 week and then the body weight was measured. Eight animals were assigned to each group to have even body weight. In the normal group, the physiological saline 6 was injected in the right knee joint and then the physiological saline 0.2 ml was orally administered once a day for 20 days. In the treated groups, i.e., a control group, a drug-administered group and a fraction 3-administered group, papain 6 was injected in the right knee joint to induce osteoarthritis. The physiological saline in the control group, Diclofenac sodium (DS, 2 mg/kg/bw) in the drug-administered group, and 100 mg/kg/bw {below, called “fraction 3 (100)”} and 200 mg/kg/bw {below, called “fraction 3 (200)”} in the fraction 3-administered group of Example 2 were orally administered once daily at a predetermined time for 20 days.
# All subjects were lightly anesthetized with ether at the experiment end day to take a heart blood sample. The blood was centrifuged to isolate a serum. Immediately after taking a heart blood sample, the right hip joint and ankle joint were isolated and removed so as not to damage the knee joint. The tibial of the right knee joint was fixed in 10% neutral formalin solution for 24 hours and then used for the visual observation of the joints.
# The osteoarthritis index for the observed histopathological lesions in the articular cartilage and synovial membrane was digitalized in accordance with a method of Rudolphi, at al. and is shown in Table 2 below.
# IL-6 = assay: Interleukin-6 content in blood, ELISA, papain-induced arthritis; assay type: in vivo, mouse; conditions: DS 2 mg/kg/bw; fraction 3 100 and 200 mg/kg/bw; oral once daily 20 days
# Experimental: The experiment animals were adapted in a lab environment for 1 week and then the body weight was measured. Eight animals were assigned to each group to have even body weight. In the normal group, the physiological saline 6 was injected in the right knee joint and then the physiological saline 0.2 ml was orally administered once a day for 20 days. In the treated groups, i.e., a control group, a drug-administered group and a fraction 3-administered group, papain 6 was injected in the right knee joint to induce osteoarthritis. The physiological saline in the control group, Diclofenac sodium (DS, 2 mg/kg/bw) in the drug-administered group, and 100 mg/kg/bw {below, called “fraction 3 (100)”} and 200 mg/kg/bw {below, called “fraction 3 (200)”} in the fraction 3-administered group of Example 2 were orally administered once daily at a predetermined time for 20 days. All subjects were lightly anesthetized with ether at the experiment end day to take a heart blood sample. The blood was centrifuged to isolate a serum. Immediately after taking a heart blood sample, the right hip joint and ankle joint were isolated and removed so as not to damage the knee joint. […] The contents of tumor necrosis factor-α (TNF-α), interleukin-1β (IL-1β) and interleukin-6 (IL-6) were measured using enzyme-linked immunosorbent assay (ELISA) kit, respectively.
# [2] = tested on: animal models of osteoarthritis C57BL/6J mouse; assay: Visual observation of knee joint cartilage surface in papain-induced osteoarthritis; assay type: in vivo; conditions: DS 2 mg/kg/bw; fraction 3 100 and 200 mg/kg/bw; oral once daily 20 days
# Experimental: as §1, §2
# The experiment animals were adapted in a lab environment for 1 week and then the body weight was measured. Eight animals were assigned to each group to have even body weight. In the normal group, the physiological saline 6 was injected in the right knee joint and then the physiological saline 0.2 ml was orally administered once a day for 20 days. […]
# IL-1β = assay: Interleukin-1β content in blood, ELISA, papain-induced arthritis; assay type: in vivo, mouse; conditions: DS 2 mg/kg/bw; fraction 3 100 and 200 mg/kg/bw; oral once daily 20 days; p<0.05
# Experimental: The experiment animals were adapted in a lab environment for 1 week and then the body weight was measured. Eight animals were assigned to each group to have even body weight. In the normal group, the physiological saline 6 was injected in the right knee joint and then the physiological saline 0.2 ml was orally administered once a day for 20 days. In the treated groups, i.e., a control group, a drug-administered group and a fraction 3-administered group, papain 6 was injected in the right knee joint to induce osteoarthritis. The physiological saline in the control group, Diclofenac sodium (DS, 2 mg/kg/bw) in the drug-administered group, and 100 mg/kg/bw {below, called “fraction 3 (100)”} and 200 mg/kg/bw {below, called “fraction 3 (200)”} in the fraction 3-administered group of Example 2 were orally administered once daily at a predetermined time for 20 days. All subjects were lightly anesthetized with ether at the experiment end day to take a heart blood sample. The blood was centrifuged to isolate a serum. […] The contents of tumor necrosis factor-α (TNF-α), interleukin-1β (IL-1β) and interleukin-6 (IL-6) were measured using enzyme-linked immunosorbent assay (ELISA) kit, respectively. The effect of fraction 3 of the inflammatory cytokine IL-1β produced in large quantities in animals where arthritis was induced by injection of papain was measured by ELISA method.
# [3] = Papain + DS 2 mg/kg/bw oral once daily 20 days, group mean
# [4] = Papain + DS 2 mg/kg/bw oral once daily 20 days, individual animals 1-8
structure (smiles),measurement,setting,value
"O=C(O)Cc1ccccc1Nc1c(Cl)cccc1Cl [DS, Diclofenac sodium]",TNF-α content in blood compared with papain-administrated control group,TNF-α,significantly lower
same,osteoarthritis index compared with the papain-administered control group,"[1]; DS 2 mg/kg/bw, fraction 3 100 and 200 mg/kg/bw, oral once daily 20 days, p<0.05",significantly lower
same,"Cellularity score, Mean",[1]; [3],2.0
same,"Matrix structure score, Mean",[1]; [3],2.6
same,"Subchondral bone score, Mean",[1]; [3],1.1
same,"Synovial membrane score, Mean",[1]; [3],1.5
same,"Sum of osteoarthric score, Mean","[1]; Papain + DS 2 mg/kg/bw oral once daily 20 days, group mean, papain control 19.8",7.4
same,"Cellularity score, per subject",[1]; [4],2
same,"Matrix structure score, per subject",[1]; [4],1 (3×) and 3 (4×) and 6
same,"Subchondral bone score, per subject",[1]; [4],3 (3×) and 0 (5×)
same,"Sum of osteoarthric score, per subject",[1]; [4],6 (2×) and 4 and 11 (2×) and 5 and 8 (2×)
same,"Synovial membrane score, per subject",[1]; [4],0 (3×) and 1 and 3 (4×)
same,IL-6 content in blood compared with papain-administrated control group,IL-6,significantly lower
same,visual appearance of knee joint cartilage surface compared with papain-administered group,[2],the scope of the discoloration was less and the elimination of visual cartilage surface was not observed
same,IL-1β content in blood compared with papain-administrated control group,IL-1β,significantly lower

# From patent US9937210B2, “Method for isolating fraction having anti-inflammatory or osteoarthritis-inhibiting effects by using oyster shell chips” (Seojin Biotech Co., Ltd., priority 2012, dated 2018)
